Results on eleven compounds are retold here after ChEMBL document CHEMBL1201862, “PubChem BioAssay data set” (2004).

Some test systems named below: A498; A549; COLO 205; DU-145; HL-60; HT-29; IGROV-1; MCF7; NCI-H460; OVCAR-3; OVCAR-4; PC-3; RXF 393; SF-295; SK-OV-3; SNB-19; SW-620; UACC-257; UO-31.
What all share (experiment): NCI anticancer screen, dose series, 48 h

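Interpolation was linear, between the two tested concentrations surrounding the appropriate level; five concentrations were tested over 48 hours in 96-well plates. GI50: concentration for 50% inhibition of growth.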 Calls of active or inactive are those of the source. Rule as the data show it: active = GI50 up to about 1.1 µM and inactive = higher.

Take `CCN1CC2=C(NC(=S)NC2c2cc(OC)c(OC)c(OC)c2)/C(=C/c2cc(OC)c(OC)c(OC)c2)C1` (configuration not stated): the GI50 in the assay on A498 is 27.3 µM (inactive); in the assay on A549, 26.7 µM (inactive); in the assay on COLO 205 it was 20.1 µM (inactive); with DU-145, 33.3 µM (inactive); in the assay with HL-60, 19.5 µM (inactive); with HT-29 it was 23.4 µM (inactive). The GI50 is 24.4 µM (inactive) with IGROV-1; 24.6 µM (inactive) with MCF7; 46.8 µM (inactive) in the assay on NCI-H460; 67.5 µM (inactive) with OVCAR-3; 75.2 µM (inactive) in the assay on OVCAR-4; 26.4 µM (inactive) in the assay on PC-3. Also, the GI50 in the assay on RXF 393 was 33 µM (inactive); in the assay with SF-295, 53 µM (inactive); in the assay with SK-OV-3 it was > 100 µM (inactive); with SNB-19, 36.8 µM (inactive); with SW-620 it was 86.3 µM (inactive); with UACC-257, 59 µM (inactive). In the assay with UO-31, the GI50 was 20.5 µM (inactive).
In the case of `N#C/C(C(=O)Nc1ccc(Cl)cc1)=C(/N)N1CCCC1`, the GI50 in the assay with A498 was > 100 µM (inactive); in the assay with A549 it was > 100 µM (inactive); in the assay on COLO 205, > 100 µM (inactive); with DU-145, > 100 µM (inactive); in the assay on HL-60, 0.635 µM (active); with IGROV-1, > 100 µM (inactive). The GI50 with MCF7, in the assay on NCI-H460, in the assay on OVCAR-3, in the assay on PC-3, in the assay with SF-295 and with SK-OV-3 was > 100 µM (inactive) in each case. Also, the GI50 in the assay on SNB-19, in the assay on SW-620, in the assay with UACC-257 and in the assay on UO-31 was > 100 µM (inactive) throughout.
In the case of `Cc1cn(CC2=NCC(O)CN2)c(=O)[nH]c1=O` (configuration not stated), the GI50 with A498, with A549, in the assay on COLO 205, in the assay with DU-145, with HL-60 and in the assay with HT-29 was > 100 µM (inactive) throughout. Also, the GI50 in the assay with IGROV-1, in the assay on MCF7, in the assay on NCI-H460, with OVCAR-3, with OVCAR-4 and in the assay on PC-3 was > 100 µM (inactive) in each case. Besides, the GI50 in the assay with RXF 393, with SF-295, with SK-OV-3, in the assay on SNB-19, in the assay on SW-620 and with UACC-257 was > 100 µM (inactive) in each case. Besides, the GI50 with UO-31 is > 100 µM (inactive).
In the case of `N#CC(C(=O)C(=O)Nc1ccc(Cl)cc1)c1ccccc1` (configuration not stated), the GI50 was > 100 µM (inactive) in the assay with A498; > 100 µM (inactive) in the assay with A549; 93.1 µM (inactive) in the assay with COLO 205; > 100 µM (inactive) in the assay with HL-60; > 100 µM (inactive) in the assay on HT-29; > 100 µM (inactive) with IGROV-1. Also, the GI50 in the assay with NCI-H460, with OVCAR-3, in the assay with OVCAR-4, in the assay on RXF 393, in the assay on SF-295 and with SK-OV-3 was > 100 µM (inactive) each time. Further, the GI50 in the assay with SNB-19, in the assay with SW-620, in the assay on UACC-257 and in the assay on UO-31 was > 100 µM (inactive) throughout.
Take `O/N=C1\CCCCC1C(NO)c1ccccc1` (configuration not stated): the GI50 in the assay with A498 is > 100 µM (inactive); with A549, > 100 µM (inactive); in the assay with COLO 205, > 100 µM (inactive); in the assay on HL-60, 57.7 µM (inactive); in the assay on HT-29, > 100 µM (inactive); in the assay with IGROV-1, > 100 µM (inactive). The GI50 with NCI-H460, in the assay with OVCAR-3, in the assay on OVCAR-4, in the assay on RXF 393, in the assay on SF-295 and in the assay with SK-OV-3 was > 100 µM (inactive) throughout. Moreover, the GI50 in the assay on SNB-19 was > 100 µM (inactive); with SW-620, > 100 µM (inactive); in the assay on UACC-257, > 100 µM (inactive); with UO-31, 89.5 µM (inactive).
On to `CC(C)Oc1c(O)c2c3c(oc(=O)n3C=CC2c2ccccc2)c1OC(C)C` (configuration not stated), for which the GI50 in the assay on A549 was 27.3 µM (inactive); in the assay on COLO 205, 22.1 µM (inactive); with DU-145 it was 34 µM (inactive); in the assay on HL-60, 27 µM (inactive); in the assay on HT-29, 24.2 µM (inactive); in the assay with IGROV-1, 21.9 µM (inactive). Also, the GI50 in the assay on MCF7 is 19.6 µM (inactive); with NCI-H460 it was 14.7 µM (inactive); in the assay with OVCAR-3, 21.5 µM (inactive); in the assay with OVCAR-4, 24.6 µM (inactive); with PC-3, 17 µM (inactive); with SF-295, 20.8 µM (inactive). Further, the GI50 in the assay with SK-OV-3 was > 100 µM (inactive); in the assay on SNB-19 it was 20.3 µM (inactive); with SW-620 it was 32 µM (inactive); with UACC-257, 25.1 µM (inactive); in the assay on UO-31, 14.2 µM (inactive).
As to `CC1(C)CC(=O)C(/C(=N/NC(=S)NN)C(=O)Nc2nc3ccc([N+](=O)[O-])cc3s2)C(=O)C1`, the GI50 with A498, in the assay with A549, in the assay with COLO 205, with HL-60, in the assay on HT-29 and in the assay with IGROV-1 was > 100 µM (inactive) throughout. Moreover, the GI50 was > 100 µM (inactive) with NCI-H460; 67.9 µM (inactive) in the assay with OVCAR-3; > 100 µM (inactive) in the assay on OVCAR-4; > 100 µM (inactive) in the assay on RXF 393; > 100 µM (inactive) in the assay with SF-295; > 100 µM (inactive) in the assay with SK-OV-3. In addition, the GI50 in the assay with SNB-19 is > 100 µM (inactive); with SW-620, > 100 µM (inactive); in the assay with UACC-257, > 100 µM (inactive); in the assay on UO-31 it was 89.7 µM (inactive).
As to `C=C1c2nc3ccccc3n2C=C(c2ccc(Cl)cc2)N1c1ccc(OCCN2CCCCC2)cc1`, the GI50 in the assay on A498 was > 45 µM (inactive); in the assay on A549 it was > 45 µM (inactive); with COLO 205, > 45 µM (inactive); with DU-145, > 45 µM (inactive); in the assay with HL-60, 5.01 µM (inactive); in the assay with HT-29, > 45 µM (inactive). The GI50 with IGROV-1 is > 45 µM (inactive); in the assay on MCF7 it was > 45 µM (inactive); in the assay on NCI-H460, 1.72 µM (inactive); in the assay with OVCAR-3 it was > 45 µM (inactive); in the assay on OVCAR-4, > 45 µM (inactive); with PC-3 it was > 45 µM (inactive). In addition, the GI50 is > 45 µM (inactive) with RXF 393; > 45 µM (inactive) with SF-295; > 45 µM (inactive) with SK-OV-3; > 45 µM (inactive) in the assay on SNB-19; > 45 µM (inactive) with SW-620; 0.843 µM (active) in the assay with UACC-257. Further, in the assay on UO-31, the GI50 is > 45 µM (inactive).
Regarding `COC(=O)C1=C(C(=O)OC)C2CCC1CC2=O` (configuration not stated), the GI50 in the assay on A498 is > 100 µM (inactive); in the assay with A549, > 100 µM (inactive); in the assay with COLO 205, 50.9 µM (inactive); in the assay with DU-145, > 100 µM (inactive); in the assay on HT-29 it was > 100 µM (inactive); with IGROV-1 it was > 100 µM (inactive). For the same compound, the GI50 with MCF7, in the assay on NCI-H460, in the assay on OVCAR-3, with OVCAR-4, in the assay on PC-3 and in the assay with RXF 393 was > 100 µM (inactive) in each case. For the same compound, the GI50 was > 100 µM (inactive) in the assay on SF-295; > 100 µM (inactive) in the assay with SK-OV-3; > 100 µM (inactive) with SNB-19; 89.9 µM (inactive) with SW-620; > 100 µM (inactive) with UACC-257; 55.1 µM (inactive) with UO-31.
In the case of `Cc1ccc(C(=O)Nc2ccc(S(=O)(=O)O)c3cc(S(=O)(=O)O)cc(S(=O)(=O)O)c23)cc1NC(=O)Nc1cc(C(=O)Nc2ccc(S(=O)(=O)O)c3cc(S(=O)(=O)O)cc(S(=O)(=O)O)c23)ccc1C`, the GI50 in the assay with A498, in the assay with A549, in the assay on DU-145, in the assay on HL-60, in the assay with HT-29 and with IGROV-1 was > 87.5 µM (inactive) in each case. In addition, the GI50 in the assay on MCF7, with NCI-H460, in the assay on OVCAR-3, in the assay on OVCAR-4, with PC-3 and in the assay on SNB-19 was > 87.5 µM (inactive) each time. Further, the GI50 in the assay with SW-620, with UACC-257 and in the assay on UO-31 was > 87.5 µM (inactive) throughout.
As to `COC(=O)C1=Cc2cc3c(cc2[C@H](c2ccc4c(c2)OCO4)C1C(=O)OC)OCO3` (some centres not stated), the GI50 with A498 is 0.0745 µM (active); in the assay on A549 it was > 100 µM (inactive); in the assay with COLO 205, 37.8 µM (inactive); with HL-60 it was 65.6 µM (inactive); in the assay on HT-29, 36.2 µM (inactive); in the assay on IGROV-1, 1.73 µM (inactive). Further, the GI50 in the assay with NCI-H460 was 89.9 µM (inactive); in the assay on OVCAR-3, 44.9 µM (inactive); in the assay on OVCAR-4, 61.9 µM (inactive); in the assay on RXF 393, 80.4 µM (inactive); in the assay on SF-295, 38.5 µM (inactive); with SK-OV-3 it was > 100 µM (inactive). Also, the GI50 with SNB-19 is > 100 µM (inactive); in the assay with SW-620 it was 71.3 µM (inactive); in the assay with UACC-257 it was > 100 µM (inactive); in the assay on UO-31, > 100 µM (inactive).
